From US6376670B1, “Quinoline-indole antimicrobial agents, uses and compositions related thereto” (Sepracor Inc., priority 1997, dated 2002)
Where two headings read alike, the source gives them in different places.

Assays:
Experiment in all cases: Determination of MIC values (BHI broth, 96 well microtiter plate)
Format in all cases: cell-based
[1] = test system: Streptococcus pneumoniae; conditions: BHI broth; for MIC: Streptococcus pneumoniae, read-out: MIC S. pneu
Outline: (§1)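 Broth microdilution in Brain-Heart Infusion with twofold dilution series from 25 µg/mL final and a no-compound control. Overnight incubation at 37° C in a CO2 atmosphere; visual growth endpoint gives the MIC.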

[2] = test system: methicillin-resistant Staphylococcus aureus (MRSA); conditions: BHI broth; for MIC: Staphylococcus aureus, MRSA, read-out: MIC MRSA
Outline: as §1

[3] = test system: vancomycin-resistant Enterococcus spp. (VRE); conditions: BHI broth; for MIC: Enterococcus, VRE, read-out: MIC VREF
Outline: as §1

[4] = 37° C., overnight (about 16 hours)
[5] = 16 h, 37° C., overnight (about 16 hours)

SMILES	MIC ([1]; S. pneu, overnight 37° C.) [µg/mL]	MIC ([2]; overnight 37° C.) [µg/mL]	MIC ([3]; VREF, overnight 37° C.) [µg/mL]	MIC ([1]; 37° C., about 16 hours) [µg/mL]	MIC ([2]; 16 h, 37° C., about 16 hours) [µg/mL]	MIC ([3]; 16 h, 37° C., about 16 hours) [µg/mL]	further results
Cc1cccc2ccc(-c3c[nH]c4cc(Cl)ccc34)nc12 [Example 410]	–	–	–	< 25	< 25	> 25	–
NCCCCNC(=O)c1cc(-c2c[nH]c3cc(F)ccc23)nc2cc(F)ccc12 [Example 496]	–	–	–	< 25	< 25	> 25	–
Cn1cc(-c2cc(C(=O)NCc3ccc(CN)cc3)c3cc(C#CCNCC4CCCCC4)ccc3n2)c2cc(Br)ccc21 [Example 391]	< 7	< 7	< 7	–	–	–	–
N#CCc1cc(-c2c[nH]c3ccc(Br)cc23)nc2cc(Cl)ccc12 [Example 522]	–	–	–	< 7	< 7	< 25	–
Cn1cc(-c2cc(C(=O)NCc3ccc(CN)cc3)c3cc(C#CCN4CCc5ccccc5C4)ccc3n2)c2cc(Br)ccc21 [Example 394]	> 25	> 25	> 25	–	–	–	–
Clc1ccc2nc(-c3c[nH]c4cccc(Cl)c34)ccc2c1 [Example 201]	< 7	< 7	< 25	–	–	–	–
Cc1[nH]c2ccc(Cl)cc2c1-c1ccc2cc(Cl)ccc2n1 [Example 384]	< 7	< 7	> 25	–	–	–	–
COc1ccc2[nH]cc(-c3ccc4ccc(C)cc4n3)c2c1 [Example 479]	–	–	–	< 25	> 25	> 25	–
Clc1ccc2nc(-c3c[nH]c4ccc(Br)cc34)ccc2c1 [Example 153]	–	–	–	–	–	–	MIC [1, 4]: < 7 µg/mL; MIC [2, 5]: < 7 µg/mL; MIC [3, 5]: > 25 µg/mL
NCCNC(=O)c1cc(-c2c[nH]c3ccc(Br)cc23)nc2cc(Cl)c(C#CCN3CCSCC3)cc12 [Example 528]	–	–	–	< 7	< 7	< 7	–
Clc1ccc2[nH]cc(-c3ccc4ccccc4n3)c2c1 [Example 168]	–	–	–	–	–	–	MIC [1, 4]: < 7 µg/mL; MIC [2, 5]: < 7 µg/mL; MIC [3, 5]: > 25 µg/mL
NC1CCCCC1NC(=O)c1cc(-c2c[nH]c3ccc(Br)cc23)nc2c(Cl)c(Cl)ccc12 (stereo not drawn) [Example 280]	< 7	< 7	< 7	–	–	–	–
CN1CCN(CC#Cc2ccc3nc(-c4cn(C)c5ccc(Br)cc45)cc(C(=O)NCCN)c3c2)CC1 [Example 405]	–	–	–	< 25	< 25	< 25	–
Clc1cc(-c2c[nH]c3ccc(Br)cc23)nc2ccccc12 [Example 345]	< 7	< 7	> 25	–	–	–	–
Cc1ccc2nc(-c3c[nH]c4cc(Cl)ccc34)ccc2c1 [Example 436]	–	–	–	< 7	< 7	> 25	–
O=C(NCc1cc(-c2c[nH]c3ccc(Br)cc23)nc2cc(Cl)ccc12)NC1CCCCC1 [Example 524]	–	–	–	< 7	< 7	< 7	–
NCc1ccc(CNC(=O)c2cc(-c3c[nH]c4ccc(Br)cc34)nc3ccc(C(F)(F)F)cc23)cc1 [Example 103]	–	–	–	–	–	–	MIC [1, 4]: < 7 µg/mL; MIC [2, 5]: < 7 µg/mL; MIC [3, 5]: < 7 µg/mL
Clc1ccc2nc(-c3c[nH]c4ccc(Br)cc34)c3c(c2c1)OCCC3 [Example 503]	–	–	–	< 25	< 7	> 25	–
Clc1ccc2c(Cl)cc(-c3c[nH]c4ccc(OCc5ccccc5)cc34)nc2c1 [Example 477]	–	–	–	< 7	< 7	> 25	–

SMILES	MIC ([1]; S. pneu, overnight 37° C.) [µg/mL]	MIC ([2]; overnight 37° C.) [µg/mL]	MIC ([3]; VREF, overnight 37° C.) [µg/mL]	MIC ([1]; 37° C., about 16 hours) [µg/mL]	MIC ([2]; 16 h, 37° C., about 16 hours) [µg/mL]	MIC ([3]; 16 h, 37° C., about 16 hours) [µg/mL]	further results
COc1ccc2nc(-c3c[nH]c4cc(F)ccc34)ccc2c1 [Example 413]	–	–	–	> 25	> 25	> 25	–
Clc1cc(-c2c[nH]c3c(Br)cccc23)nc2ccccc12 [Example 346]	< 25	< 25	> 25	–	–	–	–
NCc1cccc(CNC(=O)c2cc(-c3c[nH]c4ccc(Br)cc34)nc3ccc(I)cc23)c1 [Example 116]	–	–	–	–	–	–	MIC [1, 4]: < 7 µg/mL; MIC [2, 5]: < 7 µg/mL; MIC [3, 5]: < 7 µg/mL
COc1ccc2nc(-c3c[nH]c4ccc(Br)cc34)ccc2c1 [Example 412]	–	–	–	> 25	< 7	> 25	–
NCC1CCC(CNC(=O)c2cc(-c3c[nH]c4ccc(Br)cc34)nc3cc(Cl)cc(Cl)c23)CC1 (stereo not drawn) [Example 247]	< 7	< 7	< 7	–	–	–	–
NCC1CCC(CNC(=O)c2cc(-c3c[nH]c4ccc(Br)cc34)nc3ccc(Cl)cc23)CC1 (stereo not drawn) [Example 133]	–	–	–	–	–	–	MIC [1, 4]: < 7 µg/mL; MIC [2, 5]: < 7 µg/mL; MIC [3, 5]: < 7 µg/mL
CN(C)CCN(C)C(=O)c1cc(-c2c[nH]c3ccc(Br)cc23)nc2cc(Cl)c(C#CCN3CCCCC3)cc12 [Example 512]	–	–	–	< 7	< 7	< 7	–
Cc1cc2nc(-c3c[nH]c4ccc(Br)cc34)cc(C(=O)NCc3ccc(CN)cc3)c2cc1C [Example 118]	–	–	–	–	–	–	MIC [1, 4]: < 7 µg/mL; MIC [2, 5]: < 7 µg/mL; MIC [3, 5]: < 7 µg/mL
NCc1cc(-c2c[nH]c3ccc(Cl)cc23)nc2ccccc12 [Example 372]	< 7	< 7	< 25	–	–	–	–
Clc1ccc2c(Cl)cc(-c3c[nH]c4ccc(Br)cc34)nc2c1 [Example 460]	–	–	–	< 7	< 7	< 7	–
NC(=O)c1cc(-c2c[nH]c3ccc(Br)cc23)nc2ccc(C#CCN3CCCCC3)cc12 [Example 483]	–	–	–	< 7	< 7	< 7	–
CNCCN(C)C(=O)c1cc(-c2cn(C)c3ccc(Br)cc23)nc2cc(Cl)ccc12 [Example 506]	–	–	–	< 7	< 7	< 7	–
COc1ccc2nc(-c3c[nH]c4ccc(Cl)cc34)ccc2c1 [Example 416]	–	–	–	< 7	< 7	> 25	–
OCc1cc(-c2c[nH]c3ccc(Br)cc23)nc2ccc(Cl)cc12 [Example 491]	–	–	–	–	–	–	MIC S. pneu ([1]; 37° C., about 16 hours): < 7 µg/mL; MIC MRSA ([2]; 37° C., about 16 hours): < 7 µg/mL; MIC VREF ([3]; 37° C., about 16 hours): >25 µg/mL
Cc1ccc2ccc(-c3c[nH]c4cc(F)ccc34)nc2c1 [Example 478]	–	–	–	> 25	> 25	> 25	–
OCc1cc(-c2c[nH]c3ccc(Br)cc23)nc2cc(F)ccc12 [Example 490]	–	–	–	–	–	–	MIC S. pneu ([1]; 37° C., about 16 hours): < 7 µg/mL; MIC MRSA ([2]; 37° C., about 16 hours): < 7 µg/mL; MIC VREF ([3]; 37° C., about 16 hours): >25 µg/mL
CC(C)CNC(=O)c1cc(-c2c[nH]c3ccc(Br)cc23)nc2ccc(C#CCN3CCCCC3)cc12 [Example 519]	–	–	–	< 7	< 7	> 25	–
CCOc1cc(-c2cn(C(=O)OC(C)(C)C)c3ccc(Br)cc23)nc2ccc(I)cc12 [Example 361]	> 25	> 25	> 25	–	–	–	–

Further lines, with some results ahead:

MIC ([1]; S. pneu, overnight 37° C.) [µg/mL]	MIC ([2]; overnight 37° C.) [µg/mL]	MIC ([3]; VREF, overnight 37° C.) [µg/mL]	MIC ([1]; 37° C., about 16 hours) [µg/mL]	MIC ([2]; 16 h, 37° C., about 16 hours) [µg/mL]	MIC ([3]; 16 h, 37° C., about 16 hours) [µg/mL]	SMILES	further results
< 7	< 7	< 7	–	–	–	NCC1CCC(CNC(=O)c2cc(-c3c[nH]c4ccc(Br)cc34)nc3cc(Cl)c(I)cc23)CC1 (stereo not drawn) [Example 244]	–
< 7	< 7	< 25	–	–	–	NCc1ccc(CNC(=O)c2cc(-c3c[nH]c4ccc(Br)cc34)nc3ccc(F)cc23)cc1 [Example 253]	–
< 7	< 7	< 7	–	–	–	CC(C)N(CC#Cc1ccc2nc(-c3cn(C)c4ccc(Br)cc34)cc(C(=O)NCc3ccc(CN)cc3)c2c1)C(C)C [Example 398]	–
< 7	< 25	< 25	–	–	–	NCC1CCC(CNC(=O)c2cc(-c3c[nH]c4ccc(Cl)cc34)nc3ccc(I)cc23)CC1 (stereo not drawn) [Example 226]	–
< 7	< 7	< 7	–	–	–	NCCNC(=O)c1cc(-c2c[nH]c3ccc(Br)cc23)nc2cc(Cl)c(I)cc12 [Example 294]	–
–	–	–	< 7	< 7	< 25	OCc1cc(-c2c[nH]c3ccc(Br)cc23)nc2ccccc12 [Example 442]	–
–	–	–	< 7	< 7	< 7	NCc1cc(-c2c[nH]c3ccc(Br)cc23)nc2cc(Cl)ccc12 [Example 511]	–
< 25	< 7	< 7	–	–	–	NCc1ccc(CNC(=O)c2cc(-c3c[nH]c4ccc(Br)cc34)nc3cc(C#CCNCCc4ccc(Cl)cc4)ccc23)cc1 [Example 300]	–
< 25	< 25	< 25	–	–	–	NCc1ccc(CNC(=O)c2cc(-c3c[nH]c4c(Cl)cccc34)nc3ccccc23)cc1 [Example 260]	–
< 7	< 7	< 7	–	–	–	NCc1ccc(CNC(=O)c2cc(-c3c[nH]c4ccc(Br)cc34)nc3ccccc23)cc1 [Example 283]	–
< 7	< 7	< 7	–	–	–	NCc1ccc(CNC(=O)c2cc(-c3c[nH]c4ccc(Br)cc34)nc3cc(F)ccc23)cc1 [Example 254]	–
< 7	< 7	< 7	–	–	–	NCCNC(=O)c1cc(-c2c[nH]c3ccc(Cl)cc23)nc2cc(Br)ccc12 [Example 312]	–
< 7	< 25	< 25	–	–	–	Cn1cc(-c2cc(C(=O)NCc3ccc(CN)cc3)c3cc(C#CCN4CCCCC4)ccc3n2)c2cc(Br)ccc21 [Example 376]	–
< 7	< 7	< 7	–	–	–	NCCNC(=O)c1cc(-c2c[nH]c3ccc(Br)cc23)nc2ccc(Br)cc12 [Example 285]	–
–	–	–	< 7	< 7	< 7	NCCNC(=O)c1cc(-c2c[nH]c3ccc(Br)cc23)nc2ccc(C#CCO)cc12 [Example 523]	–
< 7	< 7	< 7	–	–	–	NCC1CCCC(CNC(=O)c2cc(-c3c[nH]c4ccc(Br)cc34)nc3cc(I)ccc23)C1 (stereo not drawn) [Example 250]	–
